Laboratory results taken from patent publication US20250049741A1, “COMPOSITION FOR PREVENTING OR TREATING ALZHEIMER'S DISEASE COMPRISING PHOSPHOLIPASE C ACTIVATOR AS AN ACTIVE INGREDIENT” (Korea University Research and Business Foundation, priority 2021, published 2025).

Experiments:
Assay type in all cases: cell-based, Sprague-Dawley rats
[1] = test system: CA1 PCs in rat hippocampal slices; assay: Ex vivo eCB / S-eCB mobilization protocol: eIPSC amplitudes by whole-cell voltage-clamp
Description: To test the acute effect of AβO on hippocampal S-eCB mobilization, hippocampal slices from Sprague-Dawley rats (SD, 2 to 3 weeks old, DaeHan Biolink, Co., Ltd., Korea) were used. Male and female rats were used in all in vitro experiments. To test the chronic effect of AβO on hippocampus-dependent memory impairments caused by amyloidosis, the 5XFAD mouse model (6 to 7 months old, #34840-JAX, Jackson Laboratory, USA), which is a mouse model of Alzheimer's disease that mimics AβO depositions, was used. C57BL/6 mice (6 to 7 months old, KOATECH, Korea) were used as wild type (WT) control mice for 5XFAD mice. Male 5XFAD and C57BL/6 mice were used for all in vivo behavioral experiments. The 5XFAD mouse genotypes were identified by polymerase chain reaction (PCR) using DNA extracted from the tails of the mice. All animal-related procedures followed the guidelines of the Institutional Animal Care and Use Committee of Korea University (guidelines for SD rats: KUIACUC-2017-103, guidelines for C57BL/6 and 5XFAD mice: KUIACUC-2019-0068).
(§1) Soluble AβO was prepared according to a previous study (BMC Biol. 2020; 18(1):7). Specifically, Aβ1-42 (Aβ) and a scrambled form of Aβ as a control peptide were purchased in powder form. Aβ and scrambled Aβ were dissolved for monomerization in 1,1,1,3,3,3-hexafluoro-2-propanol (HFIP, Sigma Aldrich, USA) at a final concentration of 1 mM, and the solution was incubated for 90 minutes. After the HFIP was evaporated, the remaining thin and clear film of Aβ or scrambled Aβ was dissolved in dimethyl sulfoxide (DMSO, Sigma Aldrich, USA) to prepare 5 mM Aβ or scrambled Aβ stocks, which were aliquoted and frozen at −20° C. Aβ or scrambled Aβ stocks were thawed and diluted to 100 μM in artificial cerebrospinal fluid (ACSF). Thereafter, Aβ or scrambled Aβ stocks were incubated for oligomerization for 18 hours. The final AβO or scrambled AβO stock solution was diluted to a final concentration of 200 nM in 31.2 ml of ACSF, and rat hippocampal slices were treated with the stock solution for 20 minutes in a recovery chamber before measurement of brain signals. In control experiments for normal brain conditions using a vehicle, rat hippocampal slices were treated with 0.004% DMSO in ACSF.
(§2) The brains of SD rats were isolated following decapitation under isoflurane-induced anesthesia and transferred into ice-cold ACSF containing 126 mM NaCl, […], 1.25 mM NaH2PO4, 2 mM MgSO4, 2 mM CaCl2), 25 mM NaHCO3, and 10 mM glucose (pH 7.2 to 7.4). The ACSF was continuously oxygenated with 95% O2/5% CO2. Horizontal hippocampal slices (350 μm thickness) were obtained using a vibratome (VT1000S, Leica Biosystems, Germany) and immediately incubated at room temperature in a submerged chamber perfused with oxygenated ACSF for at least 1 hour.
To quantify eCB mobilization, the changes in eCB mobilization-induced Schaffer collateral (SC) nerve bundle stimulation-evoked inhibitory postsynaptic current (eIPSC) amplitudes were measured in CA1 PCs through the whole-cell voltage-clamp technique. The whole-cell voltage-clamp technique in CA1 PCs was performed using a MultiClamp 700B amplifier (Molecular Devices, USA) under an infrared differential interference contrast video microscope (BW51W, Olympus, Japan), using a borosilicate electrode (tip resistance: 4 to 8 MΩ) that was filled with an intracellular solution containing 145 mM CsCl, 10 mM HEPES, 2 mM EGTA, 4 mM QX-314, 4 mM Mg-ATP, 0.4 mM […], pH 7.2 to 7.3, and 270 to 280 mOsm/L. To record eIPSCs in the CA1 PCs, a stimulating electrode (A-M Systems, USA) was placed in a stratum radiatum to stimulate the SC pathway that carries CA3 PC axons. Electrical stimulation pulses of 200 to 400 μA amplitudes (20 to 40 μs) were generated using a constant current stimulator (model DS3, Digitimer Ltd., UK). eIPSCs were recorded in CA PCs every 1 second while maintaining the membrane potential at −70 mV.

[2] = test system: hippocampal CA3-CA1 excitatory synapses; assay: S-eCB mobilization induced spike timing-dependent potentiation (tLTP) protocol, EPSP slope
Method: as §1, §2

PLCβ1 = assay: Western blot of PLCβ1 in rat hippocampal slices; details: AβO-treated rat hippocampal slices
Method: as §1, with “The final AβO or scrambled AβO stock solution was diluted to a final concentration of 200 nM in 31.2 ml of ACSF, and rat hippocampal slices were treated with the stock solution for 20 minutes in a recovery chamber before measurement of brain signals. In control experiments for normal brain conditions using a vehicle, rat hippocampal slices were treated with 0.004% DMSO in ACSF.” left out
Hippocampal PLCβ1 of SD rats and C57BL/6 or 5XFAD mice were prepared from homogenized hippocampi dissolved in 200 μL of RIPA buffer (Bio-Rad, USA), and were resolved on non-reducing 10% tris-glycine-sodium dodecyl sulfate-polyacrylamide gel electrophoresis (SDS-PAGE) gels (Bio-Rad, USA) using 4×Laemmli sample buffers (Bio-Rad, USA). […] Immunoreactivity was confirmed with enhanced chemiluminescence (Bio-Rad, USA) using a Fluorchem E system (ProteinSimple, USA) and analyzed with ImageJ software. […]

[3] = DMSO-treated rat hippocampal slices, D-AP5 50 μM or AM251 3 μM

With `Cc1c(C(=O)NN2CCCCC2)nn(-c2ccc(Cl)cc2Cl)c1-c1ccc(I)cc1` [AM251] the “effect on the DHPG-induced decrease of eIPSC amplitude (eCB mobilization)” value ([1]; AM251 3 μM, DHPG puff alone) was “blocked the decrease in amplitude”.

With `N[C@H](CCCP(=O)(O)O)C(=O)O` [D-AP5, D-2-amino-5-phosphonovaleric acid] the “mGluR5-mediated LTD in the presence of antagonist” value [2, 3] was “induced in both the test and control pathways” and the “tLTP induction (EPSP slope, test pathway), effect of antagonist” value [2, 3] was “completely blocked”.

`N[C@H](C(=O)O)c1cc(O)cc(O)c1` [DHPG, (S)-3,5-dihydroxyphenylglycine] was tested, and the “first ten eIPSC amplitudes as % of the mean eIPSC amplitude measured at the baseline before the DHPG puff” value ([1]; DHPG (50 μM) puff alone, rat hippocampal slices, mean±SEM) was 79±7% and the “eIPSC amplitude as % of the baseline eIPSC amplitude (S-eCB mobilization)” value ([1]; DHPG puff paired with 60-s-long postsynaptic neural spike trains at 1 Hz, DMSO-treated rat hippocampal slices, mean±SEM) was 62±4%.

`Cc1cc(C(=O)O)ccc1[C@H](N)C(=O)O` [LY367385] was tested, and the “eIPSC amplitudes following 60-s-long DHPG puff during 1 Hz neural spikes in the presence of mGluR1 antagonist” value ([1]; LY367385 100 μM, DMSO-treated rat hippocampal slices) was “decreased”.

With `Cc1cccc(C#Cc2ccccc2)n1` [MPEP, 2-methyl-6-(phenylethynyl) pyridine] the “eIPSC amplitudes following DHPG puff during 1 Hz neural spikes in the presence of mGluR5 antagonist” value ([1]; MPEP 10 μM, DMSO-treated, AβO-treated or scrambled AβO-treated rat hippocampal slices) was “did not significantly change”.

For `COc1ccc2c(c1)CC[C@@H]1[C@@H]2CC[C@]2(C)[C@@H](NCCCCCCN3C(=O)C=CC3=O)CC[C@@H]12` [U73122], the “synergistic enhancement in the suppression of eIPSC amplitudes (S-eCB mobilization), effect of PLCβ blocker” value ([1]; U73122 5 μM, DMSO-treated rat hippocampal slices, similar in AβO- and scrambled AβO-treated slices) was “completely blocked”.

For “AβO: soluble amyloid beta oligomer prepared from Aβ1-42 peptide powder (Bachem)”, the “mGluR-LTD in the control pathway” value ([2]; AβO-treated compared to DMSO-treated rat hippocampal slices) was “not affected”, the “induction of tLTP in the test pathway” value ([2]; AβO-treated rat hippocampal slices) was “completely blocked” and the “protein expression levels of PLCβ1 compared to DMSO-treated slices” value (PLCβ1) was “remarkably decreased”. The “eIPSC amplitudes / suppression of eIPSC amplitudes following DHPG puff during 1 Hz neural spikes in peptide-treated slices” value ([1]; slices treated with 200 nM peptide for 20 minutes, in the presence of LY367385 100 μM) was “completely blocked”.
